# From ChEMBL document CHEMBL4376854, “Investigation of the Adrenergic and Opioid Binding Affinities, Metabolic Stability, Plasma Protein Binding Properties, and Functional Effects of Selected Indole-Based Kratom Alkaloids” (J Med Chem, 2020)
# The source made the active and inactive calls. The calls are words filed in the database; no cut-off is given here.
# What was measured:
# [1] = test system: Rattus norvegicus; assay: Antinociceptive activity in Sprague-Dawley rat dosed intravenously using cumulative dosing every 5 mins until rat maxed-out on hot plate by hot plate test; assay type: functional; conditions: iv
# [2] = test system: Rattus norvegicus; assay: Antinociceptive activity in Sprague-Dawley rat dosed intravenously using cumulative dosing every 5 mins until rat maxed-out on hot plate co-treated with 0.1 mg/kg naltrexone by hot plate test; assay type: functional, organism-based
# [3] = biological target: Mu-type opioid receptor (Homo sapiens, UniProt P35372); assay: biochemical
# Sequence of Mu-type opioid receptor (P35372 whole entry): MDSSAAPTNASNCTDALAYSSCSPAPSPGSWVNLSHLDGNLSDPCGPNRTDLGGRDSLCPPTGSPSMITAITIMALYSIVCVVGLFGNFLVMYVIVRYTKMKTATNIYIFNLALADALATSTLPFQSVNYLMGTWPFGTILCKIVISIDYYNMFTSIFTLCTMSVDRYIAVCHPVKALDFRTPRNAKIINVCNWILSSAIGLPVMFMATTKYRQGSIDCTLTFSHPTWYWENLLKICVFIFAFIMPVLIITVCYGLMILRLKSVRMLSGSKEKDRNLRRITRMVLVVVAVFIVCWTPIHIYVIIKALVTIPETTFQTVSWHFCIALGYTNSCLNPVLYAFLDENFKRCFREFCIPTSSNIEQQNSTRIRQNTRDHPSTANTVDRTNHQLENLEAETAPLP
# [4] = biological target: T1, Delta-type opioid receptor (Homo sapiens, UniProt P41143); assay: Displacement of [3H]DADLE from human recombinant delta opioid receptor expressed in rat Chem-1 (RBL) cell membranes at 100 nM incubated for 60 mins relative to control
# T1 sequence (P41143 whole entry): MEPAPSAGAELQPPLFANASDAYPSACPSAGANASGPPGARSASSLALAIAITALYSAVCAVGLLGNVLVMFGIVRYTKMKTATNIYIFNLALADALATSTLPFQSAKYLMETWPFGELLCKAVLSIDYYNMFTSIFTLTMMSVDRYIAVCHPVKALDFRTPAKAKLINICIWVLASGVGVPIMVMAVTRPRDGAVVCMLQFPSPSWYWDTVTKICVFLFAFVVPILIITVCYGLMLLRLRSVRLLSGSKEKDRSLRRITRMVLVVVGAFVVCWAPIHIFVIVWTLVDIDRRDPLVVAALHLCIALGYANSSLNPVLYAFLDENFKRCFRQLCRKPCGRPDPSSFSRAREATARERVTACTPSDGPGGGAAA
# [5] = biological target: T1, Delta-type opioid receptor; assay: Displacement of [3H]DADLE from human recombinant delta opioid receptor expressed in rat Chem-1 (RBL) cell membranes at 10000 nM incubated for 60 mins relative to control
# [6] = biological target: Kappa-type opioid receptor (Homo sapiens, UniProt P41145); assay: Displacement of [3H]U69,593 from human recombinant kappa opioid receptor expressed in rat RBL cell membranes incubated for 60 mins
# Sequence of Kappa-type opioid receptor (P41145 whole entry): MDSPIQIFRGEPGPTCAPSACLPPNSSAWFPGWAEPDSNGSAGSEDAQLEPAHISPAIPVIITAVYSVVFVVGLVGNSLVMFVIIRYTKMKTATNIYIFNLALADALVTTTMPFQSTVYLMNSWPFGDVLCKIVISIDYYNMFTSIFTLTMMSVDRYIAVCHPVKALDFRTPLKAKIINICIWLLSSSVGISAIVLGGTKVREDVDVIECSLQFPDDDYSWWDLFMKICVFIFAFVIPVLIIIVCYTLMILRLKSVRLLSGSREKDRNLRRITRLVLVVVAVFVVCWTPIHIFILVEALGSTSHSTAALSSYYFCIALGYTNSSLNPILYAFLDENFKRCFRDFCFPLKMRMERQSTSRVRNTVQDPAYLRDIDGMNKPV
# [7] = biological target: T1, Delta-type opioid receptor; assay: Antagonist activity at human recombinant delta opioid receptor expressed in rat Chem-1 (RBL) cells assessed as inhibition of DPDPE-induced intracellular calcium levels incubated at room temperature by fluorimetry; assay type: functional, cell-based
# [8] = test system: Rattus norvegicus; assay: Antinociceptive activity in Sprague-Dawley rat dosed intravenously using cumulative dosing every 5 mins until rat maxed-out on hot plate by hot plate test relative to control; assay type: functional
# [9] = Toxicity in Sprague-Dawley rat assessed as induction of hypothermia at 0.0032 to 10 mg/kg, iv; assay type: organism-based; conditions: in vivo
# [10] = Protein binding in human plasma at 1 uM by equilibrium dialysis; assay type: ADME, cell-free; conditions: read-out: PPB (converted)
# [11] = human, microsomes, 1 h
# [12] = human, microsomes, 1 µM
# [13] = in vitro; conditions: human, plasma
# [14] = biological target: T1, Delta-type opioid receptor; assay: biochemical
Compound,ED50 [1] [mg/kg],Activity [2],Ki [3] [nM],inhibition [4] [%],inhibition [5] [%],Ki [6] [nM],Kb [7] [nM],MPE [8] [%],Activity [9],fraction unbound at 1 µM [10],Kel [11] [min⁻¹],Fu [12],fraction unbound at 1 µM [13],Ki [14] [nM]
CN1CC[C@]23c4c5ccc(O)c4O[C@H]2[C@@H](O)C=C[C@H]3[C@H]1C5 [MORPHINE],5.1,inactive,,,,,,,,,,,,
CC[C@@H]1CN2CCc3c([nH]c4cccc(O)c34)[C@@H]2C[C@@H]1/C(=C\OC)C(=O)OC,,,105,,,,,,,,,,,
CC[C@@H]1CN2CC[C@@]3(O)C(=Nc4cccc(OC)c43)[C@@H]2C[C@@H]1/C(=C\OC)C(=O)OC,1.91,inactive,,19.6,93.7,74.1,550,100,Non-Toxic,0.1,0.0041,0.852,0.1,236
